{
  "source": "patent US4513001A",
  "about": "“β-Adrenergic 1-[1-benzimidazolyl]-N-[2-(4-hydroxy-3-methoxy-phenyl)-2-hydroxy-ethyl]- 3-amino butane and salts and hydrates thereof” (priority 1982, dated 1985)",
  "key": {"heart rate [1]": {"tested_on": "heart rate", "experiment": "β-stimulant specificity: heart rate of the anesthetised dog, antagonism of compound A tachycardia by acebutolol", "format": "in vivo", "text": "The results below are the averages of the values obtained in 3 dogs."}, "[2]": {"experiment": "Acute toxicity in the mouse, intravenous", "settings": "in vivo", "text": "These two compounds were the subject of an acute toxicity study in the mouse.\nThe two compounds had similar toxicity and the pharmacological study was able, indifferently, to be carried out with one or the other, the results being, in the two cases, expressed by weight of base per kg of body weight for the in vivo tests and in molar concentration for the in vitro tests."}, "heart rate [3]": {"tested_on": "heart rate", "experiment": "Heart rate of the un-anesthetised dog, oral", "format": "in vivo, Beagle dog"}, "[4]": {"settings": "T1 + 1 min after acebutolol 0.5 mg/kg i.v., following compound A perfusion"}, "[5]": {"settings": "T1 + 5 min after acebutolol 0.5 mg/kg i.v."}, "[6]": {"settings": "T1 + 15 min after acebutolol 0.5 mg/kg i.v."}, "[7]": {"settings": "T1 + 30 min (printed T i) after acebutolol 0.5 mg/kg i.v."}, "[8]": {"settings": "T1 + 1 h after acebutolol 0.5 mg/kg i.v."}, "[9]": {"settings": "T1 + 4 h after acebutolol 0.5 mg/kg i.v."}},
  "note": "Where two headings read alike, the source gives them in different places.",
  "data": [
    {"compound": "CCCC(=O)Nc1ccc(OCC(O)CNC(C)C)c(C(C)=O)c1", "note": "(centres unmarked) [Acebutolol, reference compound]", "values": [
      {"measurement": "Heart rate", "setting": "heart rate [1]; [4]", "value": 162, "unit": "beats/min"},
      {"measurement": "Heart rate variation", "setting": "heart rate [1]; [4]", "value": "+5"},
      {"measurement": "Heart rate", "setting": "heart rate [1]; [5]", "value": 156, "unit": "beats/min"},
      {"measurement": "Heart rate variation", "setting": "heart rate [1]; [5]", "value": -1},
      {"measurement": "Heart rate", "setting": "heart rate [1]; [6]", "value": 149, "unit": "beats/min"},
      {"measurement": "Heart rate variation", "setting": "heart rate [1]; [6]", "value": -8},
      {"measurement": "Heart rate", "setting": "heart rate [1]; [7]", "value": 147, "unit": "beats/min"},
      {"measurement": "Heart rate variation", "setting": "heart rate [1]; [7]", "value": -10},
      {"measurement": "Heart rate", "setting": "heart rate [1]; [8]", "value": 154, "unit": "beats/min"},
      {"measurement": "Heart rate variation", "setting": "heart rate [1]; [8]", "value": -3},
      {"measurement": "Heart rate", "setting": "heart rate [1]; [9]", "value": 143, "unit": "beats/min"},
      {"measurement": "Heart rate variation", "setting": "heart rate [1]; [9]", "value": -14},
      {"measurement": "Antagonism of the tachycardia caused by compound A", "setting": "heart rate [1]; acebutolol 0.5 mg/kg i.v., compound A perfused 6 min at 4.2 μg/kg/min", "value": "completely antagonises the tachycardia caused by compound A"}
    ]},
    {"compound": "COc1cc(C(O)CNC(C)CCn2cnc3ccccc32)ccc1O.Cl.Cl.O.O", "note": "(centres unmarked) [Compound B, 1-[1-benzimidazolyl]-N-[2-(4-hydroxy-3-methoxy-phenyl)-2-hydroxy-ethyl]-3-amino-butane dihydrochloride, dihydrate]", "values": [
      {"measurement": "LD50", "setting": "[2]; as base, confidence limits printed, read-out: LD50 expressed as base", "value": 106, "unit": "mg/kg"},
      {"measurement": "LD50", "setting": "[2]; by weight of product, confidence limits p=0.05 printed, read-out: LD50", "value": 148, "unit": "mg/kg"},
      {"measurement": "Heart rate, average", "setting": "heart rate [3]; 22 μg base/kg, 15 min, time 0: 94, 12 dogs", "value": 130},
      {"measurement": "Heart rate, average", "setting": "heart rate [3]; 22 μg base/kg, 30 min, time 0: 94", "value": 129},
      {"measurement": "Heart rate, average", "setting": "heart rate [3]; 22 μg base/kg, 1 h, time 0: 94", "value": 129},
      {"measurement": "Heart rate, average", "setting": "heart rate [3]; 22 μg base/kg, 2 h, time 0: 94", "value": 119},
      {"measurement": "Heart rate, average", "setting": "heart rate [3]; 22 μg base/kg, 3 h, time 0: 94", "value": 109},
      {"measurement": "Heart rate, average", "setting": "heart rate [3]; 22 μg base/kg, 4 h, time 0: 94", "value": 104},
      {"measurement": "Heart rate, average", "setting": "heart rate [3]; 22 μg base/kg, 5 h, time 0: 94", "value": 102},
      {"measurement": "Heart rate, average", "setting": "heart rate [3]; 72 μg base/kg, 15 min, time 0: 90, 12 dogs", "value": 147},
      {"measurement": "Heart rate, average", "setting": "heart rate [3]; 72 μg base/kg, 30 min, time 0: 90", "value": 162},
      {"measurement": "Heart rate, average", "setting": "heart rate [3]; 72 μg base/kg, 1 h, time 0: 90", "value": 162},
      {"measurement": "Heart rate, average", "setting": "heart rate [3]; 72 μg base/kg, 2 h, time 0: 90", "value": 160},
      {"measurement": "Heart rate, average", "setting": "heart rate [3]; 72 μg base/kg, 3 h, time 0: 90", "value": 146},
      {"measurement": "Heart rate, average", "setting": "heart rate [3]; 72 μg base/kg, 4 h, time 0: 90", "value": 132},
      {"measurement": "Heart rate, average", "setting": "heart rate [3]; 72 μg base/kg, 5 h, time 0: 90", "value": 125},
      {"measurement": "Heart rate, average", "setting": "heart rate [3]; 72 μg base/kg, 6 h, time 0: 90", "value": 115},
      {"measurement": "Heart rate, average", "setting": "heart rate [3]; 72 μg base/kg, 7 h, time 0: 90", "value": 112},
      {"measurement": "Tachycardiac activity (comparison with Salbutamol)", "setting": "heart rate [3]; un-anesthetised dog, in words", "value": "distinctly less tachycardiac than Salbutamol"}
    ]}
  ]
}
